Results reported in ChEMBL document CHEMBL3885881, “DrugMatrix”.

Organism: Rattus norvegicus
Assay: DrugMatrix - Regimen: Daily Repeat
Format: toxicity, organism-based, Sprague-Dawley
Parameters: regimen Daily Repeat, gender Male, age 6-8 weeks
Settings: in vivo, po, route oral GAVAGE, vehicle 100 % WATER; for ABSOLUTE BASOPHIL / ABSOLUTE EOSINOPHIL / ABSOLUTE LYMPHOCYTE / ABSOLUTE MONOCYTE / ABSOLUTE SEGMENTED NEUTROPHIL / BASOPHIL / EOSINOPHIL / ERYTHROCYTE COUNT / HEMATOCRIT / HEMOGLOBIN / LEUKOCYTE COUNT / LYMPHOCYTE / MEAN CORPUSCULAR HEMOGLOBIN / MEAN CORPUSCULAR HEMOGLOBIN CONCENTRATION / MEAN CORPUSCULAR VOLUME / MONOCYTE / NEUTROPHIL / NUCLEATED RED BLOOD CELLS / PLATELET COUNT: tissue Blood; for ALANINE AMINOTRANSFERASE / ALBUMIN / ALKALINE PHOSPHATASE / ASPARTATE AMINOTRANSFERASE / BLOOD UREA NITROGEN / CARBON DIOXIDE / CHLORIDE / CHOLESTEROL / CREATINE PHOSPHOKINASE / CREATININE / GLUCOSE / LACTATE DEHYDROGENASE / LIPASE / PHOSPHORUS / SODIUM / TOTAL BILIRUBIN / TOTAL PROTEIN / URIC ACID: tissue Plasma
[1] = 200 mg/kg, 120 h, dose level Low, time 5 day
[2] = 1100 mg/kg, 72 h, dose level High, time 3 day
[3] = 1100 mg/kg, 120 h, dose level High, time 5 day

## CC1(C)S[C@@H]2[C@H](NC(=O)[C@H](N)c3ccc(O)cc3)C(=O)N2[C@H]1C(=O)O [AMOXICILLIN]
[1]
  ABSOLUTE BASOPHIL: 0 CELLS/uL
  ABSOLUTE EOSINOPHIL: 0 CELLS/uL
  ABSOLUTE LYMPHOCYTE: 6222 CELLS/uL
  ABSOLUTE MONOCYTE: 124 CELLS/uL
  ABSOLUTE SEGMENTED NEUTROPHIL: 487.33 CELLS/uL
  BASOPHIL: 0%
  EOSINOPHIL: 0%
  ERYTHROCYTE COUNT: 5.52 x10E6/uL
  HEMATOCRIT: 34.17%
  HEMOGLOBIN: 13.17 G/DL
  LEUKOCYTE COUNT: 6.83 x10E3/uL
  LYMPHOCYTE: 90.67%
  MEAN CORPUSCULAR HEMOGLOBIN: 23.87 pg
  MEAN CORPUSCULAR HEMOGLOBIN CONCENTRATION: 38.53 G/DL
  MEAN CORPUSCULAR VOLUME: 61.87 fL
  MONOCYTE: 2%
  NEUTROPHIL: 7.33%
  NUCLEATED RED BLOOD CELLS: 0 /100WBC
  PLATELET COUNT: 1169.67 x10E3/uL
  ALANINE AMINOTRANSFERASE: 61.67 u/L
  ALBUMIN: 4.07 G/DL
  ALKALINE PHOSPHATASE: 419.67 u/L
  ASPARTATE AMINOTRANSFERASE: 85.33 u/L
  BLOOD UREA NITROGEN: 19 mg/dL
  CARBON DIOXIDE: 35 mmol/L
  CHLORIDE: 99.33 MEQ/L
  CHOLESTEROL: 64.33 mg/dL
  CREATINE PHOSPHOKINASE: 366.67 u/L
  CREATININE: 0.22 mg/dL
  GLUCOSE: 133.67 mg/dL
  LACTATE DEHYDROGENASE: 112.33 u/L
  LIPASE: 9 u/L
  PHOSPHORUS: 11.07 mg/dL
  SODIUM: 143.8 MEQ/L
  TOTAL BILIRUBIN: 0.17 mg/dL
  TOTAL PROTEIN: 6.17 G/DL
  URIC ACID: 0.73 mg/dL
[2]
  ABSOLUTE BASOPHIL: 0 CELLS/uL
  ABSOLUTE EOSINOPHIL: 0 CELLS/uL
  ABSOLUTE LYMPHOCYTE: 13682.33 CELLS/uL
  ABSOLUTE MONOCYTE: 492.67 CELLS/uL
  ABSOLUTE SEGMENTED NEUTROPHIL: 958.33 CELLS/uL
  BASOPHIL: 0%
  EOSINOPHIL: 0%
  ERYTHROCYTE COUNT: 6.16 x10E6/uL
  HEMATOCRIT: 39.43%
  HEMOGLOBIN: 14.47 G/DL
  LEUKOCYTE COUNT: 15.13 x10E3/uL
  LYMPHOCYTE: 90%
  MEAN CORPUSCULAR HEMOGLOBIN: 23.5 pg
  MEAN CORPUSCULAR HEMOGLOBIN CONCENTRATION: 36.7 G/DL
  MEAN CORPUSCULAR VOLUME: 64.03 fL
  MONOCYTE: 3.33%
  NEUTROPHIL: 6.67%
  NUCLEATED RED BLOOD CELLS: 0 /100WBC
  PLATELET COUNT: 1311.33 x10E3/uL
  ALANINE AMINOTRANSFERASE: 52.33 u/L
  ALBUMIN: 4.43 G/DL
  ALKALINE PHOSPHATASE: 365.33 u/L
  ASPARTATE AMINOTRANSFERASE: 83 u/L
  BLOOD UREA NITROGEN: 16.33 mg/dL
  CARBON DIOXIDE: 32 mmol/L
  CHLORIDE: 101.33 MEQ/L
  CHOLESTEROL: 79.67 mg/dL
  CREATINE PHOSPHOKINASE: 343 u/L
  CREATININE: 0.2 mg/dL
  GLUCOSE: 138 mg/dL
  LACTATE DEHYDROGENASE: 129.67 u/L
  LIPASE: 9.33 u/L
  PHOSPHORUS: 12.4 mg/dL
  SODIUM: 142.9 MEQ/L
  TOTAL BILIRUBIN: 0.17 mg/dL
  TOTAL PROTEIN: 6.17 G/DL
  URIC ACID: 2.13 mg/dL
[3]
  ABSOLUTE BASOPHIL: 0 CELLS/uL
  ABSOLUTE EOSINOPHIL: 0 CELLS/uL
  ABSOLUTE LYMPHOCYTE: 7076 CELLS/uL
  ABSOLUTE MONOCYTE: 76 CELLS/uL
  ABSOLUTE SEGMENTED NEUTROPHIL: 448 CELLS/uL
  BASOPHIL: 0%
  EOSINOPHIL: 0%
  ERYTHROCYTE COUNT: 6.01 x10E6/uL
  HEMATOCRIT: 37.2%
  HEMOGLOBIN: 14.1 G/DL
  LEUKOCYTE COUNT: 7.6 x10E3/uL
  LYMPHOCYTE: 92.33%
  MEAN CORPUSCULAR HEMOGLOBIN: 23.5 pg
  MEAN CORPUSCULAR HEMOGLOBIN CONCENTRATION: 37.9 G/DL
  MEAN CORPUSCULAR VOLUME: 61.93 fL
  MONOCYTE: 1%
  NEUTROPHIL: 6.67%
  NUCLEATED RED BLOOD CELLS: 0 /100WBC
  PLATELET COUNT: 1145.67 x10E3/uL
  ALANINE AMINOTRANSFERASE: 59.33 u/L
  ALBUMIN: 4.43 G/DL
  ALKALINE PHOSPHATASE: 434 u/L
  ASPARTATE AMINOTRANSFERASE: 94.33 u/L
  BLOOD UREA NITROGEN: 17.33 mg/dL
  CARBON DIOXIDE: 33 mmol/L
  CHLORIDE: 100.33 MEQ/L
  CHOLESTEROL: 75 mg/dL
  CREATINE PHOSPHOKINASE: 622.67 u/L
  CREATININE: 0.12 mg/dL
  GLUCOSE: 113 mg/dL
  LACTATE DEHYDROGENASE: 161.33 u/L
  LIPASE: 9 u/L
  PHOSPHORUS: 10.27 mg/dL
  SODIUM: 144.67 MEQ/L
  TOTAL BILIRUBIN: 0.13 mg/dL
  TOTAL PROTEIN: 5.67 G/DL
  URIC ACID: 0.8 mg/dL
